Measurements: patent US20090221567A1, “MUSCARINIC RECEPTOR AGONISTS, COMPOSITIONS, METHODS OF TREATMENT THEREOF, AND PROCESSES FOR PREPARATION THEREOF 177” (ASTRAZENECA AB, priority 2008, published 2009)

Experiments:
[1] = biological target: T1, human M4 receptor (human Muscarinic receptor subtype 4) (Homo sapiens, UniProt P08173); assay: hM4 receptor GTPγS binding; type: biochemical; conditions: CHO membranes, [35S]GTPγS binding
T1 construct: purchased Perkin-Elmer RBHM4M; host or cells: membranes from CHO cells expressing the cloned receptor
T1 sequence (P08173 1-479): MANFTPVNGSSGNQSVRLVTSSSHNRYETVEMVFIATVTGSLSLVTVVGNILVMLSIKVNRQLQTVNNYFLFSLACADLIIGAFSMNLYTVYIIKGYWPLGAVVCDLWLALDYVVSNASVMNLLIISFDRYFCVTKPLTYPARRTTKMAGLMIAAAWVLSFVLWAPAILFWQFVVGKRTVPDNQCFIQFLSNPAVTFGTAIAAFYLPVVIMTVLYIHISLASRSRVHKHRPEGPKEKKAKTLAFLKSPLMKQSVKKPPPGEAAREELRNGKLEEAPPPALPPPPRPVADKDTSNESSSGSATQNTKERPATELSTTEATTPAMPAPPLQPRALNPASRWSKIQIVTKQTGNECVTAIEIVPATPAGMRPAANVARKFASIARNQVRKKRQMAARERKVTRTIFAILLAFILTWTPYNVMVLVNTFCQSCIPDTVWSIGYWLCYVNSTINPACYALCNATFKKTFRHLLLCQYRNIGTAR
Protocol: Membranes produced from Chinese hamster ovary cells (CHO) expressing the cloned human M4 receptor (human Muscarinic receptor subtype 4, gene bank access NM_000741), are obtained from Perkin-Elmer (RBHM4M). The membranes are thawed at 37° C., passed 3 times through a 23-gauge blunt-end needle, diluted in the GTPγS binding buffer (50 mM Hepes, 20 mM NaOH, 100 mM NaCl, 1 mM EDTA, 5 mM MgCl2, pH 7.4, 100 μM DTT). The EC50, IC50 and Emax of the compounds of the invention are evaluated from 10-point dose-response curves (three fold concentration range) done in 60 μl in 384-well non-specific binding surface plate (Corning). Ten microliters from the dose-response curves plate (5× concentration) are transferred to another 384 well plate containing 25 μl of the following: 10 μg of hM4 membranes, 500 μg of Flashblue beads (Perkin-Elmer) and GDP 40 μM. An additional 15 μl containing 3.3× (60,000 dpm) of GTPγS (0.4 nM final) are added to the wells resulting in a total well volume of 50 μl. Basal and maximal stimulated [^35S]GTPγS binding are determined in absence and presence of 30 μM final of acetylcholine agonist. The membranes/beads mix are pre-incubated for 15 minutes at room temperature with 40 μM GDP prior to distribution in plates (20 μM final). The reversal of acetylcholine-induced stimulation (10 μM final) of [^35S]GTPγS binding is used to assay the antagonist properties (IC50) of the compounds. The plates are incubated for 60 minutes at room temperature then centrifuged at 400 rpm for 5 minutes. The radioactivity (cpm) is counted in a Trilux (Perkin-Elmer).
Values of EC50, IC50 and Emax are obtained using sigmoidal fits of a non-linear curve-fitting program (XLfit version 4.2.2 Excel add-in version 4.2.2 build 18 math 1Q version 2.1.2 build 18) of percent stimulated [^35S]GTPγS binding vs. log(molar ligand). All pEC50 and pIC50 values are reported as arithmetic means±standard error of mean of ‘n’ independent experiments.

[2] = biological target: T2, hM1 (human Muscarinic receptor subtype 1) (Homo sapiens, UniProt P11229); assay: Human M1 calcium mobilization FLIPR assay; type: cell-based; conditions: receptor expressed in CHO cells, intracellular Ca2+ release; read-out: hM1 EC50
T2 construct: expressed in transfected cells; host or cells: CHO cells (Chinese hamster ovary cells, ATCC)
T2 sequence (P11229 1-460): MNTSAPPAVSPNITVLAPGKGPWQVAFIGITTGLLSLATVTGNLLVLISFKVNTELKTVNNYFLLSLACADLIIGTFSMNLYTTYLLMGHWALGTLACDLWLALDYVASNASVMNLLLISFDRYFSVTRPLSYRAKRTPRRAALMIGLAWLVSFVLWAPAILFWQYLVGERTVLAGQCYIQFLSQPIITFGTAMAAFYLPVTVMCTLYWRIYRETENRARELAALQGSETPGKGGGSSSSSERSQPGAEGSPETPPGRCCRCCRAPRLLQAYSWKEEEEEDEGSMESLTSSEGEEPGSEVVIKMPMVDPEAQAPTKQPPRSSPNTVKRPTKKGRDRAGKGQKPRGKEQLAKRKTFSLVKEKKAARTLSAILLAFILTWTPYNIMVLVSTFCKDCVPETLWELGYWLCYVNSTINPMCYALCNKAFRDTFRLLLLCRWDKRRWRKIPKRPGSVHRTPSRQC
Protocol: (§1) The compound activity in the present invention (EC50 or IC50) is measured using a 384 plate-based imaging assay that monitors drug induced intracellular Ca^2+ release in whole cells. Activation of hM1 (human Muscarinic receptor subtype 1, gene bank access NM_000738), rM1 (rat Muscarinic receptor subtype 1, gene bank access NM_080773), hM3 (human Muscarinic receptor subtype 3, gene bank access NM_000740NM_000740) and hM5 (human Muscarinic receptor subtype 5, gene bank access NM_0121258), receptors expressed in CHO cells (Chinese hamster ovary cells, ATCC) is quantified in a Molecular Devices FLIPR IITM instrument as an increase in fluorescent signal. Inhibition of hM3 and hM5 by compounds is determined by the decrease in fluorescent signal in response to 2 nM acetylcholine activation.
(§2) Prior to experiment, the cell culture medium is removed from the plates by inversion. […] Plates are incubated at 37° C. for 60 minutes prior to start the experiment. The incubation is terminated by washing the cells four times in assay buffer, leaving a residual 25 μl buffer per well. Cell plates are then transferred to the FLIPR, ready for compound additions.
(§3) The day of experiment, acetylcholine and compounds are diluted in assay buffer in three-fold concentration range (10 points serial dilution) for addition by FLIPR instrument. For all calcium assays, a baseline reading is taken for 10 seconds followed by the addition of 12.5 μl of compounds, resulting in a total well volume of 37.5 μl. Data is collected every second for 60 pictures and then every 6 seconds for 20 pictures prior to the addition of agonist. For hM3 and hM5, before agonist addition, a second baseline reading is taken for 10 seconds followed by the addition of 12.5 μl of agonist or buffer, producing a final volume of 50 μl. After agonist stimulation, the FLIPR continues to collect data every second for 60 pictures and then every 6 seconds for 20 pictures. The fluorescence emission is read using filter 1 (emission 510-570 nm) by the FLIPR on board CCD camera.
(§4) Calcium mobilization output data are calculated as the maximal relative fluorescence unit (RFU) minus the minimal value for both compound and agonist reading frame (except for hM1 and rM1 using only the maximal RFU). Data are analyzed using sigmoidal fits of a non-linear curve-fitting program (XLfit version 4.2.2 Excel add-in version 4.2.2 build 18 math 1Q version 2.1.2 build 18). All pEC50 and pIC50 values are reported as arithmetic means±standard error of mean of ‘n’ independent experiments.

[3] = biological target: T3, hM3 (human Muscarinic receptor subtype 3) (Homo sapiens, UniProt P20309); assay: Human M3 calcium mobilization FLIPR assay; type: cell-based; conditions: receptor expressed in CHO cells, intracellular Ca2+ release
T3 construct: expressed in transfected cells; host or cells: CHO cells (Chinese hamster ovary cells, ATCC)
Protocol: as §1, §2, §3, §4

T3 sequence (P20309 whole entry): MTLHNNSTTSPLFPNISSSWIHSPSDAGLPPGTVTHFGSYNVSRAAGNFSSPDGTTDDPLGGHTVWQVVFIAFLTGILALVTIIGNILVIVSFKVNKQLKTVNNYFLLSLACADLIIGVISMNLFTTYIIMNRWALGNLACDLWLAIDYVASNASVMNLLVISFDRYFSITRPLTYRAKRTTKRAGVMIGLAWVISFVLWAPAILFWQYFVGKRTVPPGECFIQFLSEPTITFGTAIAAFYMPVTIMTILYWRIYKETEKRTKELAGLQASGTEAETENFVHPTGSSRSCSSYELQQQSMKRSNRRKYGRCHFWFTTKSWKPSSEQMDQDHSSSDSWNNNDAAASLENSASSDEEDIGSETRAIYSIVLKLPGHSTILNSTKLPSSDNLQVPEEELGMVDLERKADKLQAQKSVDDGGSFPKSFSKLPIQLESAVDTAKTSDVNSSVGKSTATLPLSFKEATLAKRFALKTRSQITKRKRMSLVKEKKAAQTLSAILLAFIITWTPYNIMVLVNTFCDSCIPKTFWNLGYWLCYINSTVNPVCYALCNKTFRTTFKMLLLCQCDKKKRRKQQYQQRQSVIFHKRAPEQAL

Row | SMILES | EC50 [1] [µM] | EC50 [2] [µM] | EC50 [3] [µM]
1 | Cc1ccccc1C(=O)N1CCC(N2CCC(N3C(=O)NC[C@H]4CCCC[C@@H]43)CC2)CC1 [Example 4, (4aR,8aS)-1-[1-[1-(2-methylbenzoyl)-4-piperidyl]-4-piperidyl]-3,4,4a,5,6,7,8,8a-octahydroquinazolin-2-one] | > 30 | 0.025 | > 49
2 | CC(C)OC(=O)N1CCC(N2CCC(N3C(=O)N(C)C[C@H]4CCCC[C@@H]43)CC2)CC1 [Example 6, Propan-2-yl 4-[4-[(4aR,8aS)-3-methyl-2-oxo-4a,5,6,7,8,8a-hexahydro-4H-quinazolin-1-yl]-1-piperidyl]piperidine-1-carboxylate] | > 30 | 0.094 | > 40
3 | CC(C)OC(=O)N1CCC(C)(N2CCC(N3C(=O)NC[C@H]4CCCC[C@@H]43)CC2)CC1 [Example 8, Propan-2-yl 4-[4-[(4aR,8aS)-2-oxo-3,4,4a,5,6,7,8,8a-octahydroquinazolin-1-yl]-1-piperidyl]-4-methyl-piperidine-1-carboxylate] | > 30 | < 0.011 | > 40
4 | CC(C)OC(=O)N1CCC(N2CCC(N3C(=O)CO[C@H]4CCCC[C@@H]43)CC2)CC1 [Example 10, Propan-2-yl 4-[4-[(1S,6S)-9-oxo-7-oxa-10-azabicyclo[4.4.0]dec-10-yl]-1-piperidyl]piperidine-1-carboxylate] | > 30 | 0.022 | > 40
5 | Cc1ccccc1C(=O)N1CCC(N2CCC(N3C(=O)CO[C@H]4CCCC[C@@H]43)CC2)CC1 [Example 11, (1S,6S)-10-[1-[1-(2-methylbenzoyl)-4-piperidyl]-4-piperidyl]-7-oxa-10-azabicyclo[4.4.0]decan-9-one] | > 30 | 0.17 | > 40
6 | Cn1cccc1C(=O)N1CCC(N2CCC(N3C(=O)CO[C@H]4CCCC[C@@H]43)CC2)CC1 [Example 12, (1S,6S)-10-[1-[1-(1-methylpyrrole-2-carbonyl)-4-piperidyl]-4-piperidyl]-7-oxa-10-azabicyclo[4.4.0]decan-9-one] | > 30 | 0.34 | > 40
7 | CCOC(=O)N1CC[C@H](N2CCC(N3C(=O)CO[C@H]4CCCC[C@@H]43)CC2)C1 [Example 13, Ethyl (3S)-3-[4-[(1S,6S)-9-oxo-7-oxa-10-azabicyclo[4.4.0]dec-10-yl]-1-piperidyl]pyrrolidine-1-carboxylate] | > 30 | 0.2 | > 40
8 | CC(C)OC(=O)N1CCC(N2CCC(N3C(=O)CO[C@@H]4CCCC[C@H]43)CC2)CC1 [Example 14, Propan-2-yl 4-[4-[(1R,6R)-9-oxo-7-oxa-10-azabicyclo[4.4.0]dec-10yl]-1-piperidyl]piperidine-1-carboxylate] | > 30 | 0.13 | > 40
9 | CCOC(=O)N1CCC(N2CCC(N3C(=O)OC[C@H]4CCCC[C@@H]43)CC2)CC1 [Example 15, Ethyl 4-[4-[(1S,6S)-9-oxo-8-oxa-10-azabicyclo[4.4.0]dec-10-yl]-1-piperidyl]piperidine-1-carboxylate] | > 30 | 0.083 | > 40

Continued, values first:

Row | EC50 [1] [µM] | EC50 [2] [µM] | EC50 [3] [µM] | SMILES
10 | 8.97 | 0.023 | > 40 | CCOC(=O)N1CCC(C)(N2CCC(N3C(=O)CO[C@H]4CCCC[C@@H]43)CC2)C1 (single isomer, unassigned) [Example 18]
11 | > 30 | 0.046 | > 40 | CCOC(=O)N1CCC(C)(N2CCC(N3C(=O)CO[C@H]4CCCC[C@@H]43)CC2)C1 (single isomer, unassigned) [Example 19]
12 | 1.7 | 0.0016 | – | CCOC(=O)N1CCC(N2CCC(N3C(=O)NC[C@H]4CCCC[C@@H]43)CC2)CC1 [Example 1, Ethyl 4-[4-[(4aR,8aS)-2-oxo-3,4,4a,5,6,7,8,8a-octahydroquinazolin-1-y]-1-piperidyl]piperidine-1-carboxylate]
13 | > 20 | 0.0053 | > 49 | CC(C)OC(=O)N1CCC(N2CCC(N3C(=O)NC[C@H]4CCCC[C@@H]43)CC2)CC1 [Example 2, Propan-2-yl 4-[4-[(4aR,8aS)-2-oxo-3,4,4a,5,6,7,8,8a-octahydroquinazolin-1-yl]-1-piperidyl]piperidine-1-carboxylate]
14 | > 30 | 0.013 | > 49 | O=C(C1CC1)N1CCC(N2CCC(N3C(=O)NC[C@H]4CCCC[C@@H]43)CC2)CC1 [Example 3, (4aR,8aS)-1-[1-[1-(cyclopropanecarbonyl)-4-piperidyl]-4-piperidyl]-3,4,4a,5,6,7,8,8a-octahydroquinazolin-2-one]
15 | > 1.6 | 0.0045 | 0.69 | CCOC(=O)N1CCC(C)(N2CCC(N3C(=O)NC[C@H]4CCCC[C@@H]43)CC2)CC1 [Example 7, Ethyl 4-[4-[(4aR,8aS)-2-oxo-3,4,4a,5,6,7,8,8a-octahydroquinazolin-1-yl]-1-piperidyl]-4-methyl-piperidine-1-carboxylate]
16 | 4.3 | 0.017 | > 40 | CCOC(=O)N1CCC(N2CCC(N3C(=O)CO[C@H]4CCCC[C@@H]43)CC2)CC1 [Example 9, Ethyl 4-[4-[(1S,6S)-9-oxo-7-oxa-10-azabicyclo[4.4.0]dec-10-yl]-1-piperidyl]piperidine-1-carboxylate]
